Test results taken from ChEMBL document CHEMBL3045465, “Development of Selective Ligands for Benzodiazepine Receptor Subtypes by Manipulating the Substituents at Positions 3- and 7- of Optically Active BzR Ligands” (Med Chem Res, 2004).

How the values were obtained:
[1] = biological target: T1, GABA-A receptor; alpha-3/beta-3/gamma-2 (Homo sapiens, UniProt P18507+P28472+P34903); assay: Displacement of [3H]-Ro 15-1788 from Homo sapiens (human) recombinant GABAA alpha3beta3gamma2 receptor expressed in Ltk- cells after 1 hr by liquid scintillation counting; format: cell-based
T1 sequence (P18507 whole entry): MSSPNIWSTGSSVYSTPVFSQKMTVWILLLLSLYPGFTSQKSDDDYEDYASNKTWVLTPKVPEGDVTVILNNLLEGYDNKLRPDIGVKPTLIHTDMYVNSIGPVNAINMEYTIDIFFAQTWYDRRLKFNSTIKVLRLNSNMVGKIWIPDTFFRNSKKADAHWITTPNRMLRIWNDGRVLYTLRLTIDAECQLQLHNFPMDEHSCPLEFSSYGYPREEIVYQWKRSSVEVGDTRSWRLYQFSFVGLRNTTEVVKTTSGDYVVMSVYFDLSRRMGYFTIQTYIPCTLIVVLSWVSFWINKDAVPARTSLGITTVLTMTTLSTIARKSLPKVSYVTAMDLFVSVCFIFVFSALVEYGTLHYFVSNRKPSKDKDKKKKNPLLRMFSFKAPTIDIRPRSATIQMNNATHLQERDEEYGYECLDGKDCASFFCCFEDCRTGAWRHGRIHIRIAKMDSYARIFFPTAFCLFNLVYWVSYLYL
T1 sequence (P28472 whole entry): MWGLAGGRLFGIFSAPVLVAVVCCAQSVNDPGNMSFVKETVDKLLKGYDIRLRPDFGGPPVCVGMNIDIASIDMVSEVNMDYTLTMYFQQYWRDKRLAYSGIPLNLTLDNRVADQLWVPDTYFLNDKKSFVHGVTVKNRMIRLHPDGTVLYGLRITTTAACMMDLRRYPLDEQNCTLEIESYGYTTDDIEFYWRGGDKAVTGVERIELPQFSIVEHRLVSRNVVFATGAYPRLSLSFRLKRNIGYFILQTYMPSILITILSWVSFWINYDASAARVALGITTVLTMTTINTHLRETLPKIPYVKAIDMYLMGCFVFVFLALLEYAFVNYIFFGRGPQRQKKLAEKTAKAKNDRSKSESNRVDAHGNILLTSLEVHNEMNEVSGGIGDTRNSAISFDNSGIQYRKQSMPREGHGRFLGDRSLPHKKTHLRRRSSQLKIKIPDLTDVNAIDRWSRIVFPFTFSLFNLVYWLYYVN
T1 sequence (P34903 whole entry): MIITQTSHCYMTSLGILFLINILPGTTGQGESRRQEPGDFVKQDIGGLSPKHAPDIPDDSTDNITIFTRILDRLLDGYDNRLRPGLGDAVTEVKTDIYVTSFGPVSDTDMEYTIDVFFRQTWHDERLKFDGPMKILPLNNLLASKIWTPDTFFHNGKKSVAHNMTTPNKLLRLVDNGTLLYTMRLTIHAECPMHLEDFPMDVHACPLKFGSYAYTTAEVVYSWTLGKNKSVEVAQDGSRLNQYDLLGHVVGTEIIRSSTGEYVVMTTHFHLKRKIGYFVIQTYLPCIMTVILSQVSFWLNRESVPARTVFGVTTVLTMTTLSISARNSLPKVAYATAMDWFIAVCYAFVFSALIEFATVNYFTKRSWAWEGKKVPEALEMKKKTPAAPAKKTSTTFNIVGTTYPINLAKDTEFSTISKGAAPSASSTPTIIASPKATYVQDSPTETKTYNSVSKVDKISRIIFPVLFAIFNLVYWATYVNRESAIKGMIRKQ

[2] = biological target: GABA-A receptor; alpha-6/beta-3/gamma-2 (Homo sapiens, UniProt P18507+P28472+Q16445); assay: Displacement of [3H]-Ro 15-4513 from Homo sapiens (human) recombinant GABAA alpha6beta3gamma2 receptor expressed in Ltk- cells after 1 hr by liquid scintillation counting; format: cell-based
GABA-A receptor; alpha-6/beta-3/gamma-2, sequence (Q16445 whole entry, one chain of several): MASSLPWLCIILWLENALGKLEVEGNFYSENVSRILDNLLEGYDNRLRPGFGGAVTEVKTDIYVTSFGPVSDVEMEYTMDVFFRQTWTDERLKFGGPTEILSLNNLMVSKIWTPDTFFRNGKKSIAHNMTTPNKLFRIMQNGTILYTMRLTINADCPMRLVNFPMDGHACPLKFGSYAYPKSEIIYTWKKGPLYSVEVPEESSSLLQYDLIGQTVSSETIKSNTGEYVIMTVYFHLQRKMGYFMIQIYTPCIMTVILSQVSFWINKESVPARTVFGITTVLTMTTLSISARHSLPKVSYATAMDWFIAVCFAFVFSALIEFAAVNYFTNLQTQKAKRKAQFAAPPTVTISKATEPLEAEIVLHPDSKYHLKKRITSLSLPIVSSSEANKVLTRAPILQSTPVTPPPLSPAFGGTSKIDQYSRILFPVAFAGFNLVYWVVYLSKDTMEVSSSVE

[3] = biological target: T2, GABA-A receptor; alpha-2/beta-3/gamma-2 (Homo sapiens, UniProt P18507+P28472+P47869); assay: Displacement of [3H]-Ro 15-1788 from Homo sapiens (human) recombinant GABAA alpha2beta3gamma2 receptor expressed in Ltk- cells after 1 hr by liquid scintillation counting; format: cell-based
T2 sequence (P18507 whole entry): T1 sequence (P18507 whole entry)
T2 sequence (P28472 whole entry): T1 sequence (P28472 whole entry)
T2 sequence (P47869 whole entry): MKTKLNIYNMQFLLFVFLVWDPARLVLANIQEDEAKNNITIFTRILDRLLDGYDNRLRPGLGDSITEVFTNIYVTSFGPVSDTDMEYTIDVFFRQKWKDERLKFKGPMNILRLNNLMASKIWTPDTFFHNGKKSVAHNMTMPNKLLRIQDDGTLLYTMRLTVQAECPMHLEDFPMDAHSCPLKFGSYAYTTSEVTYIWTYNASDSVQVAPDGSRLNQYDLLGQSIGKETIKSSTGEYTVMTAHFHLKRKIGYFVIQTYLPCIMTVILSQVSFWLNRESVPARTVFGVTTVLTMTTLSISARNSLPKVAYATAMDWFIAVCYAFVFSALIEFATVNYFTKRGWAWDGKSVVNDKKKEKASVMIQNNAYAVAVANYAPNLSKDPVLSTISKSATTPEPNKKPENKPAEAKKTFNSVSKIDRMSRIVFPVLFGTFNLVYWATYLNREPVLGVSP

[4] = biological target: GABA A receptor alpha-4/beta-3/gamma-2 (Homo sapiens, UniProt P18507+P28472+P48169); assay: Displacement of [3H]-Ro 15-4513 from Homo sapiens (human) recombinant GABAA alpha4beta3gamma2 receptor expressed in Ltk- cells after 1 hr by liquid scintillation counting; format: cell-based
GABA A receptor alpha-4/beta-3/gamma-2, sequence (P48169 whole entry, one chain of several): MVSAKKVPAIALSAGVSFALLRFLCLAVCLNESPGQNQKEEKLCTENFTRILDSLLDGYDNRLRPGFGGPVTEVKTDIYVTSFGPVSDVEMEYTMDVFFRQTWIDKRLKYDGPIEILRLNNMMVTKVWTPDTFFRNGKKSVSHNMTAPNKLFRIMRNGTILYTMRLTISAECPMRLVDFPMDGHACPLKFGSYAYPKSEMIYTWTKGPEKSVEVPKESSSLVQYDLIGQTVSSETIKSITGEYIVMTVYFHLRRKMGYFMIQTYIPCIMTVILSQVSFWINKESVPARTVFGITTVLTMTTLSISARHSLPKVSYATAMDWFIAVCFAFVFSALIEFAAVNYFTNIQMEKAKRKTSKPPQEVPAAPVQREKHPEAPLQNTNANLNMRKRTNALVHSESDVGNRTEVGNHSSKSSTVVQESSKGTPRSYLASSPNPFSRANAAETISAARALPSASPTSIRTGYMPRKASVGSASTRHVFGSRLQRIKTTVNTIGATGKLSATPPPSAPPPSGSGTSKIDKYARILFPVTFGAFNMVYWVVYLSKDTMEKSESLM

[5] = biological target: T3, GABA-A receptor; alpha-1/beta-3/gamma-2 (Homo sapiens, UniProt P14867+P18507+P28472); assay: Displacement of [3H]-Ro 15-1788 from Homo sapiens (human) recombinant GABAA alpha1beta3gamma2 receptor expressed in Ltk- cells after 1 hr by liquid scintillation counting; format: cell-based
T3 sequence (P14867 whole entry): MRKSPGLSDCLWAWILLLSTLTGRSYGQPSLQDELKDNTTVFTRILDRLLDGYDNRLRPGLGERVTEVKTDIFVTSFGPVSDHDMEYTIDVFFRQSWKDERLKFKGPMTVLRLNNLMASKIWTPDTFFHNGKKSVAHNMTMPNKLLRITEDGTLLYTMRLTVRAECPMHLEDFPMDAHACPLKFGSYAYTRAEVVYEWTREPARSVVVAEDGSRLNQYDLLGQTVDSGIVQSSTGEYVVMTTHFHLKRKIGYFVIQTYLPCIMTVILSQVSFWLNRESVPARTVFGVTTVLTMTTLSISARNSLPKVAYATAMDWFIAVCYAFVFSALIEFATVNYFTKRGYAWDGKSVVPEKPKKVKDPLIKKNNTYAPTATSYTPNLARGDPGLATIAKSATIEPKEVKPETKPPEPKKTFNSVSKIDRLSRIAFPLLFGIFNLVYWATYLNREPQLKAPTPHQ
T3 sequence (P18507 whole entry): T1 sequence (P18507 whole entry)
T3 sequence (P28472 whole entry): T1 sequence (P28472 whole entry)

[6] = biological target: T4, GABA-A receptor; alpha-5/beta-3/gamma-2 (Homo sapiens, UniProt P18507+P28472+P31644); assay: Displacement of [3H]-Ro 15-1788 from Homo sapiens (human) recombinant GABAA alpha5beta3gamma2 receptor expressed in Ltk- cells after 1 hr by liquid scintillation counting; format: cell-based
T4 sequence (P18507 whole entry): T1 sequence (P18507 whole entry)
T4 sequence (P28472 whole entry): T1 sequence (P28472 whole entry)
T4 sequence (P31644 whole entry): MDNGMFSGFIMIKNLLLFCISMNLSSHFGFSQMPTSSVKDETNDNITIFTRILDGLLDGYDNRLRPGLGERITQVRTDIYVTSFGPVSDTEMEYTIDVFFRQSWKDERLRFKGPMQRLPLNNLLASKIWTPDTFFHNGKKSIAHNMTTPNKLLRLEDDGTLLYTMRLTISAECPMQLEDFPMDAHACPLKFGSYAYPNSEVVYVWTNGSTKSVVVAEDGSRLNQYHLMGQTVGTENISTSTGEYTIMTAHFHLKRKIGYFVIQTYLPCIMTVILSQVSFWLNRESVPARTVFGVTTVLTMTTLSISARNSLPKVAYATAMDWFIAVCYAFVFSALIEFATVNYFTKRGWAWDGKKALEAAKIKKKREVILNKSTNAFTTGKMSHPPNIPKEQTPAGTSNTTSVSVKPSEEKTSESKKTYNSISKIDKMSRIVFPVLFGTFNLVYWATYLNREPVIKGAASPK

[7] = species: Homo sapiens; assay: Selectivity ratio of Ki for Homo sapiens (human) recombinant GABAA alpha1beta3gamma2 receptor to Ki for Homo sapiens (human) recombinant GABAA alpha5beta3gamma2 receptor

SMILES	Ki [1] [nM]	Ki [2] [nM]	Ki [3] [nM]	Ki [4] [nM]	Ki [5] [nM]	Ki [6] [nM]	Ratio Ki [7]
O=C(OCC(F)(F)F)c1ncn2c1[C@@H]1CCCN1C(=O)c1cc(-c3ccccc3)ccc1-2	> 333	> 333	> 333	> 333	141	> 333	–
CCOC(=O)c1ncn2c1[C@@H]1CCCN1C(=O)c1cc(C#C[Si](C)(C)C)ccc1-2	–	–	–	–	–	–	50
C#Cc1ccc2c(c1)C(=O)N1CCC[C@H]1c1c(C(=O)OC(C)(C)C)ncn1-2	> 333	308	> 333	213	> 333	40	–
CC(C)(C)OC(=O)c1ncn2c1[C@@H]1CCCN1C(=O)c1cc(-c3ccccc3)ccc1-2	59	> 333	129	114	28	13	2.2
CC(C)(C)OC(=O)c1ncn2c1[C@@H]1CCCN1C(=O)c1cc(Br)ccc1-2	49	72	123	29	150	4	37.5
CCOC(=O)c1ncn2c1[C@@H]1CCCN1C(=O)c1cc(Br)ccc1-2	–	–	–	–	–	–	49
CCOC(=O)c1ncn2c1[C@@H]1CCCN1C(=O)c1cc(OC)ccc1-2	–	–	–	–	–	–	108
O=C(OCC(F)(F)F)c1ncn2c1[C@@H]1CCCN1C(=O)c1ccccc1-2	13	> 333	34	> 333	34	4.3	7.9
CC(C)(C)OC(=O)c1ncn2c1[C@@H]1CCCN1C(=O)c1cc(-c3cccs3)ccc1-2	123	> 333	120	119	16	12	1.3
C#Cc1ccc2c(c1)C(=O)N1CCC[C@H]1c1c(C(=O)OCC(F)(F)F)ncn1-2	169	320	172	345	299	8.3	36
C[Si](C)(C)C#Cc1ccc2c(c1)C(=O)N1CCC[C@H]1c1c(C(=O)OCC(F)(F)F)ncn1-2	> 333	> 333	> 333	> 333	> 333	137	–
C=Cc1ccc2c(c1)C(=O)N1CCC[C@H]1c1c(C(=O)OC(C)(C)C)ncn1-2	26	58	35	26	50	2.4	20.8
CC(C)(C)OC(=O)c1ncn2c1[C@@H]1CCCN1C(=O)c1cc(C#C[Si](C)(C)C)ccc1-2	> 333	> 333	> 333	175	> 333	103	–
O=C(OCC(F)(F)F)c1ncn2c1[C@@H]1CCCN1C(=O)c1cc(Br)ccc1-2	245	> 333	> 333	291	> 333	57	–
C=Cc1ccc2c(c1)C(=O)N1CCC[C@H]1c1c(C(=O)OCC(F)(F)F)ncn1-2	65	292	55	175	94	6.9	13.6
O=C(OCC(F)(F)F)c1ncn2c1[C@@H]1CCCN1C(=O)c1cc(-c3ccco3)ccc1-2	52	251	55	51	7.1	10	0.71
CC(C)(C)OC(=O)c1ncn2c1[C@@H]1CCCN1C(=O)c1cc(-c3ccco3)ccc1-2	15.6	46	16.2	11.6	1.8	1.7	1.1
C#Cc1ccc2c(c1)C(=O)N1CCC[C@H]1c1c(C(=O)OCC)ncn1-2	–	–	–	–	–	–	45
